≈ marks a conversion by molar mass, not a printed value. Where two headings read alike, the source gives them in different places. Marks after values point to notes of the source that are not given here. Each block holds one molecule with its values, some of them ahead of it. Residues, ends and D or L forms follow the SMILES beside them. No end group written: not given here.
Tests used:
[1] = system: A. baumannii BAA-1800 biofilm
Description: The MBIC assay measures the lowest concentration of a compound that inhibits the biofilm formation of an organism. A series of decreasing peptide concentrations starting from 64 μg/mL to 0.25 μg/mL (100 µL) were incubated with 1 × 10^5 CFU of A. baumannii in 100 µL of Tryptic Soy broth (TSB) in a polystyrene 96-well plate (Falcon 353072, Corning, NY, USA) for 24 h at 37 °C to assess biofilm formation inhibition, as described previously with minor modifications. After the incubation of bacteria with AMPs, OD600 nm was measured for approximate bacterial growth. Media were carefully removed, and wells (n = 3) were rinsed with tap water. Plates were heat-fixed at 70 °C for 1 h, and 200 µL of 0.1% crystal violet diluted in deionized water were added to wells and allowed to incubate for 15 min. Excess stain was rinsed off with tap water, and the plates were air-dried. After that, 200 µL of 33% glacial acetic acid was added to resolubilize the stain, and biofilm mass was measured by a spectrophotometric reading at OD590. Bacteria alone (no treatment) served as the 100% biofilm control, and media alone and media with a peptide/drug were used as the sterility control and the 0% biofilm control.

[2] = system: A. baumannii strains AB5075, BAA-1710, -1794, and -1800; type: cell-based, Acinetobacter baumannii
Description: (§1) Minimum inhibitory concentration (n = 3) was performed according to the CLSI protocols with a minor modification, in which Difco Mueller Hinton broth (BD 275730, Franklin Lakes, NJ, USA) was used instead of cation-adjusted Mueller Hinton broth following Wiegand et al.’s standardized protocol for testing AMPs. Bacteria were grown overnight in an opaque colony, and the concentration was determined using McFarland’s technique. An aliquot of 50 µL of 1 × 10^6 CFU/mL of bacteria was incubated with a decreasing series of peptide concentration to achieve a final bacterial concentration of 5 × 10^5 CFU/mL at 37 °C 5% CO2 for 20–24 h in Difco Mueller Hinton broth. Dilutions were performed in a 96-well polypropylene plate (Corning 3879, Corning, NY, USA). This is critical to avoid peptide binding to the plate. Results were obtained by measuring bacterial growth at OD600 nm. LL-37 and polymyxin B were used as positive controls. Samples containing only the medium and medium with peptides were used as the sterility controls and samples containing only bacteria in MHB served as the growth control. Each experiment was performed twice, and one representative experiment is shown.

[3] = system: A. baumannii BAA-1710; type: cell-based, Acinetobacter baumannii
Description: as §1

[4] = system: A. baumannii BAA-1794; type: cell-based, Acinetobacter baumannii
Description: as §1

[5] = system: AB5075 pre-formed (24 h) biofilm; type: cell-based, Acinetobacter baumannii
Description: The MBEC assay measures the lowest concentration of an antimicrobial agent that can eradicate established biofilms. Using the MBEC assay in the Biofilm Inoculator 96-well base (Innovotech Cat #1911, Edmonton, AB, Canada) and following the manufacturer’s protocol, 150 µL (n = 6) of 1 × 10^6 CFU/mL of AB5075 in TSB was incubated for 24 h at 37 °C at 110 rpm for biofilm formation. The lid containing pegs was rinsed with sterile PBS for 5 min, and then the lid was placed in a peptide challenge polypropylene 96-well plate containing a decreasing series of drug concentrations and incubated for 24 h at 37 °C at 110 rpm. Pegs were washed three times with tap water, heat-fixed for 70 °C for 1 h, and stained with 0.1% crystal violet for 15 min. Excess stain was rinsed off with tap water and allowed to dry. Stained pegs were resolubilized with 200 µL of 33% glacial acetic acid. OD590 was obtained to measure the remaining biofilm. Pegs with only bacteria served as the growth control and 100% biofilm control. Media alone and media with a peptide/drug served as the sterility controls. […] The experiment was performed twice.

[6] = system: defibrinated human red blood cells; assay: Hemolysis; type: cell-based; details: 2% hRBC in PBS, 1 h 37 °C, OD540, relative to Triton X-100, n = 3
Description: To measure the hemolytic activity of peptides, 2% human red blood cells were added to various dilutions of peptide reconstituted in PBS in a sterile U-bottom polypropylene 96-well plate following a protocol developed in our laboratory Briefly, defibrinated human blood was obtained from de-identified healthy donors from BioIVT (Westbury, NY, USA). An aliquot (1 mL) of blood was centrifuged at 1600× g for 10 min and plasma was discarded, and then 1 mL of sterile 1× PBS (HyClone) was used to wash red blood cells at least three times. In the last wash step, the supernatant was discarded, and the pallet was resuspended with 750 µL of sterile PBS. RBC suspension (2% RBC) was prepared by adding 200 µL of washed RBCs to 9.8 mL of sterile 1× PBS. A total of 50 µL of 2% RBCs were added to each well (n = 3) containing diluted peptides, resulting in a final peptide concentration of 100, 10, and 1 μg/mL. A total of 2% RBCs with 1× PBS alone served as the negative control (no peptide), and 2% RBC in Triton X-100 served as the positive control. The plate was incubated for 1 h at 37 °C and then centrifuged at 1000 rpm for 2 min. The supernatant was transferred to a fresh 96-well plate (tissue culture-treated Falcon 353072) and read at OD540. The percentage of hemolysis was calculated based on the 100% hemolysis control (Triton X-100). The experiment was repeated twice.

[7] = system: AB5075
Description: Bacteria were grown in 1 mL of MHB for 24 h. Experimental tubes that show growth in the presence of peptide/drug concentration were diluted 1:100. […] Colistin is reported to induce resistance within approximately 5–7 days for A. baumannii.

[8] = system: A. baumannii AB5075 (MRSN959); type: cell-based, Acinetobacter baumannii
Description: as §1

[9] = system: A. baumannii BAA-1800; type: cell-based, Acinetobacter baumannii
Description: as §1

[10] = A. baumannii BAA-1800, TSB, 24 h 37 °C, crystal violet
[11] = A. baumannii BAA-1800, TSB, polystyrene plate, 24 h 37 °C, crystal violet OD590, n = 3
[12] = summary over MDR A. baumannii strains of Table 3
[13] = A. baumannii BAA-1710, Difco Mueller Hinton broth, 5 × 10^5 CFU/mL, 37 °C 5% CO2, 20–24 h, OD600, n = 3
[14] = A. baumannii BAA-1794, Difco Mueller Hinton broth, 5 × 10^5 CFU/mL, 37 °C 5% CO2, 20–24 h, OD600, n = 3
[15] = MBEC100, AB5075 24 h pre-formed biofilm on pegs, 24 h challenge, crystal violet OD590, n = 6
[16] = AB5075 passaged with subinhibitory drug

Molecule: CC[C@H](C)[C@H](NC(=O)[C@H](CCCCN)NC(=O)[C@H](CCC(=O)O)NC(=O)[C@H](CCCCN)NC(=O)[C@H](CO)NC(=O)[C@H](CCCCN)NC(=O)[C@H](CCCNC(=N)N)NC(=O)[C@H](Cc1ccccc1)NC(=O)[C@H](Cc1ccccc1)NC(=O)[C@H](CC(=O)O)NC(=O)CNC(=O)[C@H](CC(C)C)NC(=O)[C@@H](N)CC(C)C)C(=O)NCC(=O)N[C@@H](CCCCN)C(=O)N[C@@H](CCC(=O)O)C(=O)N[C@@H](Cc1ccccc1)C(=O)N[C@@H](CCCCN)C(=O)N[C@@H](CCCNC(=N)N)C(=O)N[C@H](C(=O)N[C@H](C(=O)N[C@@H](CCC(N)=O)C(=O)N[C@@H](CCCNC(=N)N)C(=O)N[C@H](C(=O)N[C@@H](CCCCN)C(=O)N[C@@H](CC(=O)O)C(=O)N[C@@H](Cc1ccccc1)C(=O)N[C@@H](CC(C)C)C(=O)N[C@@H](CCCNC(=N)N)C(=O)N[C@@H](CC(N)=O)C(=O)N[C@@H](CC(C)C)C(=O)N[C@H](C(=O)N1CCC[C@H]1C(=O)N[C@@H](CCCNC(=N)N)C(=O)N[C@H](C(=O)N[C@@H](CCC(=O)O)C(=O)N[C@@H](CO)C(=O)O)[C@@H](C)O)C(C)C)[C@@H](C)CC)C(C)C)[C@@H](C)CC [LL-37]
MBIC50 [1, 10]: ~ 32 µg/mL
MBIC100 [1, 11]: 64 µg/mL
MIC across the tested strains [2, 12]: 8 to 32 µg/mL
MIC [3, 13]: 32 µg/mL (≈ 7.12 µM)
MIC [4, 14]: 16 to 32 µg/mL
MIC ([4]; A. baumannii BAA-1794, experiment shown in Figure S4): 32 µg/mL (≈ 7.12 µM)
MBEC50 ([5]; AB5075 24 h pre-formed biofilm, crystal violet): 4 µg/mL
MBEC [5, 15]: ~32 µg/mL
Hemolysis ([6]; 10 µg/mL): 5.4%
Hemolysis ([6]; 100 µg/mL): 22%

Molecule: CC[C@H](C)CCCCC(=O)N[C@@H](CCN)C(=O)N[C@H](C(=O)N[C@@H](CCN)C(=O)N[C@H]1CCNC(=O)[C@H]([C@@H](C)O)NC(=O)[C@H](CCN)NC(=O)[C@H](CCN)NC(=O)[C@H](CC(C)C)NC(=O)[C@@H](CC(C)C)NC(=O)[C@H](CCN)NC1=O)[C@@H](C)O [colistin] (HELM PEPTIDE1{[CC[C@H](C)CCCCC(=O)[*:2]].[Dab].T.[Dab].[Dab].[Dab].[dL].L.[Dab].[Dab].T}$PEPTIDE1,PEPTIDE1,5:R3-11:R2$$$V2.0; N-terminus assumed; bridges inferred)
MIC fold change reached, compared to the initial growth-inhibitory concentration ([7]; AB5075, exposure for 15 days): 512 × MIC
MIC before exposure ([7]; AB5075, initial MIC (passage 0)): 0.5 µg/mL (≈ 0.428 µM)
MIC after the fifth day of exposure [7, 16]: 64 µg/mL
MIC fold change after the fifth day [7, 16]: 128 MIC fold

MIC ([8]; AB5075 (MRSN959)): 16 µg/mL
MIC across the tested strains ([2]; BAA-1710): 16 µg/mL
MIC ([3]; BAA-1710): 16 µg/mL
MIC ([4]; BAA-1794): 16 µg/mL
MIC ([9]; BAA-1800): 16 µg/mL
Molecule: FLKKIWKLLGKLL-NH2 [HRZN-16]

Molecule: FLPWISKFLGKIL-NH2 [HRZN-15]
MBIC50 ([1]; BAA-1800, 24 h): ~ 4 µg/mL
MBIC100 ([1]; BAA-1800, 24 h): 8 µg/mL
MIC across the tested strains ([2]; BAA-1710): 4 µg/mL
MIC ([3]; BAA-1710): 4 µg/mL
MIC ([4]; BAA-1794): 4 µg/mL
MIC ([9]; BAA-1800): 4 µg/mL
MIC at the 10th passage ([7]; AB5075 passaged with peptide): 8 µg/mL
MBEC ([5]; 24 h): 16 µg/mL
MBEC50 ([5]; 24 h): 8 µg/mL

Molecule: FLWRISKFLGKKL-NH2 [HRZN-13]
MIC ([8]; A. baumannii AB5075 (MRSN959), Difco Mueller Hinton broth, 5 × 10^5 CFU/mL, 37 °C 5% CO2, 20–24 h, OD600, n = 3): 32 µg/mL
MIC across the tested strains [2, 12]: 32 to 64 µg/mL
MIC [3, 13]: 32 µg/mL
MIC [4, 14]: 64 µg/mL
MIC ([9]; A. baumannii BAA-1800, Difco Mueller Hinton broth, 5 × 10^5 CFU/mL, 37 °C 5% CO2, 20–24 h, OD600, n = 3): 64 µg/mL
Hemolysis ([6]; 100 µg/mL): 0.7%

MIC across the tested strains ([2]; BAA-1710): 16 to 64 µg/mL
MIC ([3]; BAA-1710): 32 µg/mL
MIC ([4]; BAA-1794): 64 µg/mL
MIC ([9]; BAA-1800): 32 µg/mL
Molecule: FLWRISKFLGRKL-NH2 [HRZN-14]

MIC ([8]; AB5075 (MRSN959)): 32 µg/mL
MIC across the tested strains ([2]; BAA-1710): 32 µg/mL
MIC ([3]; BAA-1710): 32 µg/mL
MIC ([4]; BAA-1794): 32 µg/mL
MIC ([9]; BAA-1800): 32 µg/mL
Molecule: KLWKLLKKLGRLL-NH2 [HRZN-17]

Molecule: VRLIVAVRIWRR-NH2 [IDR-1018]
MBIC50 [1, 10]: ~ 32 µg/mL
MBIC100 [1, 11]: >64 * µg/mL
MBEC [5, 15]: >32 µg/mL
